Measured values from US10632124B2, “Adrenoceptors antagonists for the prevention and treatment of neurodegenerative conditions” (Cedars-Sinai Medical Center, priority 2013, dated 2020).

Key:
[1] = test system: rectum, mid colon and distal colon; settings: wild type rats, cited from earlier work
[2] = test system: Parkinson's disease patient; assay: Case report of one Parkinson's disease patient; assay type: in vivo, human
Procedure: Low-dose beta-blocker therapy (carvedilol 6.25 mg BID) was started to treat anxiety avoiding the sedative effect of benzodiazepine.

[3] = in vivo; cited from earlier work
[4] = test system: patients with a diagnosis of iPD; assay: Retrospective cross-sectional medical record analysis of 333 iPD patients: constipation; assay type: in vivo, human; settings: for Constipation, % of patients / No Constipation, % of patients: by dopaminergic treatment
Excerpt: The inventors conducted a retrospective, cross-sectional medical record analysis of 333 consecutive patients with a diagnosis of iPD seen in the Movement Disorders clinic of Cedars-Sinai Medical Center from October 2010 to March 2014. Demographic and clinical data, including vitals, motor and non-motor symptoms, dopaminergic medications, comorbidities and anti-hypertensive medications were collected at the initial consultation visit. All data were collected in an Excel database and analyzed by SPSS version 19.0 (SPSS, Inc., Chicago, Ill.). Continuous variables were expressed as mean±standard deviation and compared by the use of Student t test (normally distributed) or as median±interquartile range value and compared by the use of Mann-Whitney U test (not normally distributed), as appropriate. Normality of data distribution was evaluated using the Kolmogorov-Smirnov test. Categorical variables were expressed as proportion and compared by use of χ^2 test with risk ratios and 95% confidence intervals quoted. To determine the independent predictors of constipation, logistic regression analysis was performed. Variables achieving p<0.1 on univariate analysis were then included in a multivariate analysis. Statistical significance was accepted at p<0.05. […] Constipation was strongly associated with dopaminergic treatment. On the other hand, only 28/63 (44.4%) patients treated with beta-blockers reported constipation (Table 2).

[5] = current (oral) formulations; cited from earlier work
Parkinson's disease = settings: in vivo; cited from earlier work

## CN1[C@@H]2CC[C@H]1C[C@@H](OC(=O)C(CO)c1ccccc1)C2 (some centres unmarked) [atropine]
[1]
  contractions induced by vagus nerve and pelvic nerve stimulation: abolished

## CCCN[C@H]1CCc2nc(N)sc2C1 [pramipexole]
[2]; doses up to 1.5 mg TID
  tolerability: tolerated well

## CC(C)NCC(O)COc1ccc(COCCOC(C)C)cc1 (centres unmarked) [bisopropolol]
[3]
  passage of the blood-brain barrier: pass the blood-brain barrier

## N[C@@H](Cc1ccc(O)c(O)c1)C(=O)O [Levodopa, levodopa]
[2]; Sinemet 25/100 TID added to pramipexole
  motor symptoms: almost complete resolution of motor symptoms
[4]; Betablockers
  Constipation, % of patients: 60.0%
  No Constipation, % of patients: 40.0%
[4]; No Betablockers
  Constipation, % of patients: 71.7%
  No Constipation, % of patients: 28.3%
[4]; multivariate incl. age, gender, PD duration, levodopa, dopamine-agonists, beta-blockers
  OR of constipation, multivariate logistic regression: 2.077
[4]
  OR of constipation, univariate logistic regression: 2.659

## COc1ccccc1OCCNCC(O)COc1cccc2[nH]c3ccccc3c12 (centres unmarked) [carvedilol]
[2]; 6.25 mg BID
  anxiety, constipation and sleep: improved dramatically
[2]; restarted at the same dose after self-discontinuation
  GI symptoms (abdominal bloating and constipation): virtually immediate resolution
[5]
  absorption: rapid and complete
  average elimination half-life: about 8 hours
[3]
  passage of the blood-brain barrier: pass the blood-brain barrier

## CC(C)NCC(O)COc1ccc(CCOCC2CC2)cc1 (centres unmarked) [betaxolol]
[3]
  passage of the blood-brain barrier: pass the blood-brain barrier

## c1ccc2c(c1)OCC(C1=NCCN1)O2 (centres unmarked) [idaxozan]
Parkinson's disease
  levodopa-induced dyskinesias: could also be diminished

## CCC1(c2c[nH]cn2)Cc2ccc(F)cc2C1 (centres unmarked) [fipemazole]
Parkinson's disease
  levodopa-induced dyskinesias: could also be diminished

## Cc1cc2c(OCC(CNC(C)(C)C)OC(=O)c3ccccc3)cccc2[nH]1 (centres unmarked) [bopindolol]
[3]
  passage of the blood-brain barrier: pass the blood-brain barrier

## CC(C)(C)NCC(O)COc1cccc2c1CC(O)C(O)C2 (centres unmarked) [nadolol]
Parkinson's disease
  resting, postural, and action tremor in Parkinson's disease: can be diminished

## NC12CC3CC(CC(C3)C1)C2 [Amantadine]
[4]
  OR of constipation, univariate logistic regression: 1.528

## CC(C)(C)NC[C@H](O)COc1nsnc1N1CCOCC1 [timolol]
[3]
  passage of the blood-brain barrier: pass the blood-brain barrier

## C=CCOc1ccccc1OCC(O)CNC(C)C (centres unmarked) [oxprenolol]
[3]
  passage of the blood-brain barrier: pass the blood-brain barrier

## CC(C)NCC(O)COc1cccc2ccccc12 (centres unmarked) [propranolol]
Parkinson's disease
  levodopa-induced dyskinesias: could reduce levodopa-induced dyskinesias without worsening Parkinsonism
[1]; rectum, mid colon, distal colon
  relaxations induced by hypogastric nerve stimulation: abolished
[3]
  passage of the blood-brain barrier: pass the blood-brain barrier
